Some results are limits rather than exact numbers.

In assay [1] the test system is HepG2. Put plainly: cells. To be noted: Homo sapiens, HepG2, 72 h, read-out: IC50 HepG2.
The test system of assay [2] is MDA-MB-231. In words: cells. Particulars: Homo sapiens, MDA-MB-231, 72 h, read-out: IC50 MDA-MB-231.
The test system of assay [3] is MDA-MB-231. Particulars: IC50 on LLC-PK1 divided by IC50 on MDA-MB-231.
Assay [4] has as its system HepG2. To be noted: IC50 on LLC-PK1 divided by IC50 on HepG2.
Assay [5] addresses porcine brain tubulin (Sus scrofa, UniProt P02550+P02554). In words: biochemical. Particulars: read-out: % inhibition of tubulin polymerization.

Chain of porcine brain tubulin (P02550 whole entry): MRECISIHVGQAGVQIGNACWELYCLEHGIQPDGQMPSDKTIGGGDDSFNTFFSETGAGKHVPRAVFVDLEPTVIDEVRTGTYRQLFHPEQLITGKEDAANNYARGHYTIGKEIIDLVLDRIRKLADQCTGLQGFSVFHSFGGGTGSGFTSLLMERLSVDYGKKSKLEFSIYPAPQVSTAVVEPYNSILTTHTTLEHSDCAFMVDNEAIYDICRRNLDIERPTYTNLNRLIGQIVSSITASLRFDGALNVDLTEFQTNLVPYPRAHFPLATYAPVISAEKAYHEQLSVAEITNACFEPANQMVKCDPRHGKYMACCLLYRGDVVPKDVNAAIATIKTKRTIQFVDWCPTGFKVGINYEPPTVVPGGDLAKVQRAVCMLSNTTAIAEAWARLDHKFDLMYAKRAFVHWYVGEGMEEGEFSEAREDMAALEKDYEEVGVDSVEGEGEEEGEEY
Chain of porcine brain tubulin (P02554 whole entry): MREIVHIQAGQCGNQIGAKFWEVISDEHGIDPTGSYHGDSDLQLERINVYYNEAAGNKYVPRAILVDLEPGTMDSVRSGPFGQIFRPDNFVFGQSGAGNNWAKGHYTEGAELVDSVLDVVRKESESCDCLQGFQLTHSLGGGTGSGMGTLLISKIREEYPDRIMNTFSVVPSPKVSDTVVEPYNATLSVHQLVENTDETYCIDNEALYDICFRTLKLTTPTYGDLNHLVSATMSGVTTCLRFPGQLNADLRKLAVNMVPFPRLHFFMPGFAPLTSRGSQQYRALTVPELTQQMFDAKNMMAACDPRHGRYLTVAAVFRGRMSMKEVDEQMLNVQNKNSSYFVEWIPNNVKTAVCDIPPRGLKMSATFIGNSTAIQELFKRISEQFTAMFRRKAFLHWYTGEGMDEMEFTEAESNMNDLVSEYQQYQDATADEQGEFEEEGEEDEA

As for `COc1ccc(/C=C/C(=O)/C=C/c2c(C)nn(-c3ccccc3)c2Cl)cc1OC` [Compound 7a, (1E,4E)-1-(5-Chloro-3-methyl-1-phenyl-1H-pyrazol-4-yl)-5-(3,4-dimethoxyphenyl)penta-1,4-dien-3-one], the half-inhibitory concentration (IC50) – broadly, the point on the concentration scale where inhibition reaches its midpoint – in assay [1] is 11.6 ± 1.2 µM; in assay [2], 6.6 ± 0.16 µM.
Consider `COc1ccc(/C=C/C(=O)/C=C/c2c(C)nn(-c3ccccc3)c2Cl)c(OC)c1` [Compound 7b, (1E,4E)-1-(5-Chloro-3-methyl-1-phenyl-1H-pyrazol-4-yl)-5-(2,4-dimethoxyphenyl)penta-1,4-dien-3-one], for which the IC50 in assay [1] was > 25 µM; in assay [2] it was 13.3 ± 0.39 µM.
On to `COc1cc(/C=C/C(=O)/C=C/c2c(C)nn(-c3ccccc3)c2Cl)ccc1O` [Compound 7c, (1E,4E)-1-(5-Chloro-3-methyl-1-phenyl-1H-pyrazol-4-yl)-5-(4-hydroxy-3-methoxyphenyl)penta-1,4-dien-3-one], for which the IC50 came out at 8 ± 0.87 µM in assay [1] and 7.71 ± 0.32 µM in assay [2]. The “SI MDA-MB-231” value in assay [3] was found to be 1.24. Moreover, in assay [4], the “SI HepG2” value amounted to 1.19.
Regarding `COc1ccc(/C=C/C(=O)/C=C/c2c(C)nn(-c3ccccc3)c2Cl)cc1O` [Compound 7d, (1E,4E)-1-(5-Chloro-3-methyl-1-phenyl-1H-pyrazol-4-yl)-5-(3-hydroxy-4-methoxyphenyl)penta-1,4-dien-3-one], the IC50 in assay [1] is 14.2 ± 0.77 µM; in assay [2], 5.61 ± 0.24 µM. The “SI HepG2” value in assay [4] stood at 1.14. For the same molecule, in assay [5], the inhibition (usually the percentage by which the read-out fell short of the control) at 20 µM amounted to 52 ± 0.65%.
For the molecule `CCOc1cc(/C=C/C(=O)/C=C/c2c(C)nn(-c3ccccc3)c2Cl)ccc1O` [Compound 7e, (1E,4E)-1-(5-Chloro-3-methyl-1-phenyl-1H-pyrazol-4-yl)-5-(4-hydroxy-3-ethoxyphenyl)penta-1,4-dien-3-one], the concentration for half-maximal inhibition (IC50) in assay [1] turned out to be 13.2 ± 1.41 µM; in assay [2], 13.5 ± 1.43 µM.
Consider `Cc1nn(-c2ccccc2)c(Cl)c1/C=C/C(=O)/C=C/c1ccc2c(c1)OCO2` [Compound 7f, (1E,4E)-1-(Benzo[d][1,3]dioxol-5-yl)-5-(5-chloro-3-methyl-1-phenyl-1H-pyrazol-4-yl)penta-1,4-dien-3-one], for which the IC50 was > 25 µM in assay [1] and 16.67 ± 0.07 µM in assay [2].
Regarding `COc1cc(/C=C/C(=O)/C=C/c2c(C)nn(-c3ccccc3)c2Cl)cc(OC)c1OC` [Compound 7g, (1E,4E)-1-(5-Chloro-3-methyl-1-phenyl-1H-pyrazol-4-yl)-5-(3,4,5-trimethoxyphenyl)penta-1,4-dien-3-one], the figures for the IC50 in assay [1] and in assay [2] were 13.03 ± 0.12 µM and 7.84 ± 0.07 µM, respectively.
Regarding `COc1cc(/C=C/C(=O)/C=C/c2c(C)nn(-c3ccccc3)c2Cl)cc(OC)c1O` [Compound 7h, (1E,4E)-1-(5-Chloro-3-methyl-1-phenyl-1H-pyrazol-4-yl)-5-(4-hydroxy-3,5-dimethoxyphenyl)penta-1,4-dien-3-one], the IC50 in assay [1] was 6.03 ± 0.06 µM; in assay [2], 3.64 ± 0.02 µM. In addition, the “SI HepG2” value in assay [4] was 2.14. Further, the inhibition at 20 µM in assay [5] was 45.3 ± 0.81%.
Take `COc1ccc(/C=C/C(=O)/C=C/c2c(C)nn(-c3cccc([N+](=O)[O-])c3)c2Cl)cc1OC` [Compound 8a, (1E,4E)-1-[5-Chloro-3-methyl-1-(3-nitrophenyl)-1H-pyrazol-4-yl]-5-(3,4-dimethoxyphenyl)penta-1,4-dien-3-one]: the IC50 is 7.19 ± 0.37 µM in assay [1] and 6.89 ± 0.31 µM in assay [2]. Moreover, in assay [3], the “SI MDA-MB-231” value came to 3.05. The “SI HepG2” value in assay [4] is 2.93. In assay [5], the inhibition at 20 µM is 25.9 ± 0.33%.
Regarding `COc1ccc(/C=C/C(=O)/C=C/c2c(C)nn(-c3cccc([N+](=O)[O-])c3)c2Cl)c(OC)c1` [Compound 8b, (1E,4E)-1-[5-Chloro-3-methyl-1-(3-nitrophenyl)-1H-pyrazol-4-yl]-5-(2,4-dimethoxyphenyl)penta-1,4-dien-3-one], the IC50 is 18.3 ± 3.14 µM in assay [1] and 12.3 ± 1.29 µM in assay [2].
Consider `COc1cc(/C=C/C(=O)/C=C/c2c(C)nn(-c3cccc([N+](=O)[O-])c3)c2Cl)ccc1O` [Compound 8c, (1E,4E)-1-[5-Chloro-3-methyl-1-(3-nitrophenyl)-1H-pyrazol-4-yl]-5-(4-hydroxy-3-methoxyphenyl)penta-1,4-dien-3-one], for which the IC50 in assay [1] came to 16.6 ± 0.45 µM; in assay [2] it was 7 ± 0.02 µM.
For `COc1ccc(/C=C/C(=O)/C=C/c2c(C)nn(-c3cccc([N+](=O)[O-])c3)c2Cl)cc1O` [Compound 8d, (1E,4E)-1-[5-Chloro-3-methyl-1-(3-nitrophenyl)-1H-pyrazol-4-yl]-5-(3-hydroxy-4-methoxyphenyl)penta-1,4-dien-3-one], the IC50 in assay [1] turned out to be 25.3 ± 0.3 µM; in assay [2], 7.25 ± 0.08 µM.
For `CCOc1cc(/C=C/C(=O)/C=C/c2c(C)nn(-c3cccc([N+](=O)[O-])c3)c2Cl)ccc1O` [Compound 8e, (1E,4E)-1-[5-Chloro-3-methyl-1-(3-nitrophenyl)-1H-pyrazol-4-yl]-5-(4-hydroxy-3-ethoxyphenyl)penta-1,4-dien-3-one], the IC50 is 11.18 ± 0.04 µM in assay [1] and 15.1 ± 0.2 µM in assay [2].
Consider `Cc1nn(-c2cccc([N+](=O)[O-])c2)c(Cl)c1/C=C/C(=O)/C=C/c1ccc2c(c1)OCO2` [Compound 8f, (1E,4E)-1-(Benzo[d][1,3]dioxol-5-yl)-5-(5-chloro-3-methyl-1-(3-nitrophenyl)-1H-pyrazol-4-yl)penta-1,4-dien-3-one], for which the IC50 in assay [1] and in assay [2] was > 25 µM in each case.
`COc1cc(/C=C/C(=O)/C=C/c2c(C)nn(-c3cccc([N+](=O)[O-])c3)c2Cl)cc(OC)c1OC` [Compound 8g, (1E,4E)-1-(5-Chloro-3-methyl-1-(3-nitrophenyl)-1H-pyrazol-4-yl)-5-(3,4,5-trimethoxyphenyl)penta-1,4-dien-3-one]: the values for the IC50 in assay [1] and in assay [2] were 14.65 ± 0.1 µM and 2.43 ± 0.04 µM, respectively. Also, the “SI MDA-MB-231” value in assay [3] is 2.44. Also, the “SI HepG2” value in assay [4] came to 0.40.
Regarding `COc1cc(/C=C/C(=O)/C=C/c2c(C)nn(-c3cccc([N+](=O)[O-])c3)c2Cl)cc(OC)c1O` [Compound 8h, (1E,4E)-1-(5-Chloro-3-methyl-1-(3-nitrophenyl)-1H-pyrazol-4-yl)-5-(4-hydroxy-3,5-dimethoxyphenyl)penta-1,4-dien-3-one], the IC50 in assay [1] is 6.69 ± 0.04 µM; in assay [2] it was 2.56 ± 0.01 µM. Moreover, the “SI MDA-MB-231” value in assay [3] was determined as 6.01. Besides, the “SI HepG2” value in assay [4] is given as 2.30. Moreover, the inhibition at 20 µM in assay [5] is 22.1 ± 0.84%.
As to `COc1ccc(/C=C/C(=O)/C=C/c2cn(-c3ccccc3)nc2-c2ccccc2)cc1OC` [Compound 10a, (1E,4E)-1-(3,4-Dimethoxyphenyl)-5-(1,3-diphenyl-1H-pyrazol-4-yl)penta-1,4-dien-3-one], the results for the IC50 in assay [1] and in assay [2] were > 25 µM and 23.3 ± 2.37 µM, respectively.
As for `COc1ccc(/C=C/C(=O)/C=C/c2cn(-c3ccccc3)nc2-c2ccccc2)c(OC)c1` [Compound 10b, (1E,4E)-1-(2,4-Dimethoxyphenyl)-5-(1,3-diphenyl-1H-pyrazol-4-yl)penta-1,4-dien-3-one], the IC50 in assay [1] and in assay [2] was > 25 µM each time.
As for `COc1cc(/C=C/C(=O)/C=C/c2cn(-c3ccccc3)nc2-c2ccccc2)ccc1O` [Compound 10c, (1E,4E)-1-(1,3-Diphenyl-1H-pyrazol-4-yl)-5-(4-hydroxy-3-methoxyphenyl)penta-1,4-dien-3-one], the IC50 in assay [1] was 10.6 ± 1.38 µM; in assay [2], 5.5 ± 0.22 µM. Moreover, in assay [4], the “SI HepG2” value was found to be 1.49. The inhibition at 20 µM in assay [5] was 40.76 ± 0.33%.
For the molecule `COc1ccc(/C=C/C(=O)/C=C/c2cn(-c3ccccc3)nc2-c2ccccc2)cc1O` [Compound 10d, (1E,4E)-1-(1,3-Diphenyl-1H-pyrazol-4-yl)-5-(3-hydroxy-4-methoxyphenyl)penta-1,4-dien-3-one], the IC50 in assay [1] is 6.74 ± 0.26 µM; in assay [2] it was 3.29 ± 0.18 µM. Also, in assay [3], the “SI MDA-MB-231” value is on record as 2.55. Further, the “SI HepG2” value in assay [4] is 1.25. Moreover, in assay [5], the inhibition at 20 µM is 35.5 ± 0.51%.
For the molecule `CCOc1cc(/C=C/C(=O)/C=C/c2cn(-c3ccccc3)nc2-c2ccccc2)ccc1O` [Compound 10e, (1E,4E)-1-(1,3-Diphenyl-1H-pyrazol-4-yl)-5-(4-hydroxy-3-ethoxyphenyl)penta-1,4-dien-3-one], the IC50 turned out to be 13.5 ± 1.53 µM in assay [1] and 6.14 ± 0.33 µM in assay [2].
Regarding `O=C(/C=C/c1ccc2c(c1)OCO2)/C=C/c1cn(-c2ccccc2)nc1-c1ccccc1` [Compound 10f, (1E,4E)-1-(Benzo[d][1,3]dioxol-5-yl)-5-(1,3-diphenyl-1H-pyrazol-4-yl)penta-1,4-dien-3-one], the results for the IC50 in assay [1] and in assay [2] were > 25 µM and 22 ± 3.24 µM, respectively.
Take `COc1cc(/C=C/C(=O)/C=C/c2cn(-c3ccccc3)nc2-c2ccccc2)cc(OC)c1OC` [Compound 10g, (1E,4E)-1-(1,3-Diphenyl-1H-pyrazol-4-yl)-5-(3,4,5-trimethoxyphenyl)penta-1,4-dien-3-one]: the IC50 is > 25 µM in assay [1] and 14.3 ± 0.37 µM in assay [2].
In the case of `COc1cc(/C=C/C(=O)/C=C/c2cn(-c3ccccc3)nc2-c2ccccc2)cc(OC)c1O` [Compound 10h, (1E,4E)-1-(1,3-Diphenyl-1H-pyrazol-4-yl)-5-(4-hydroxy-3,5-dimethoxyphenyl)penta-1,4-dien-3-one], the IC50 in assay [1] was 4.98 ± 0.09 µM; in assay [2], 4.06 ± 0.02 µM. In addition, the “SI MDA-MB-231” value in assay [3] turned out to be 2.51. Also, in assay [4], the “SI HepG2” value is given as 2.05. Besides, the inhibition at 20 µM in assay [5] was found to be 25.73 ± 0.15%.
Turning to `COc1cc(/C=C/C(=O)CC(=O)/C=C/c2ccc(O)c(OC)c2)ccc1O` [curcumin, reference compound], the IC50 in assay [1] stood at 23.4 ± 7.27 µM; in assay [2] it was 20.7 ± 0.8 µM. Moreover, the “SI MDA-MB-231” value in assay [3] worked out at 1.72. The “SI HepG2” value in assay [4] was found to be 1.51.
As to `CC(=O)O[C@H]1C(=O)[C@@]2(C)[C@H]([C@H](OC(=O)c3ccccc3)[C@]3(O)C[C@H](OC(=O)[C@H](O)[C@@H](NC(=O)c4ccccc4)c4ccccc4)C(C)=C1C3(C)C)[C@]1(OC(C)=O)CO[C@@H]1C[C@@H]2O` [paclitaxel, reference compound], the IC50 in assay [1] was found to be 12 ± 0.56 µM; in assay [2], 8.79 ± 0.96 µM.
